Measurements reported in publication PMC10035389, “Safety, Tolerability, and Pharmacokinetics of TAK-931, a Cell Division Cycle 7 Inhibitor, in Patients with Advanced Solid Tumors: A Phase I First-in-Human Study” (Cancer Research Communications, 2022).

Test system: patients with advanced solid tumors
Assay: Safety and tolerability (adverse events, NCI CTCAE v4.03), phase I dose-escalation study
Format: in vivo, human
Source text: This was a phase I, open-label, dose-escalation study of single-agent TAK-931. Dose escalation of TAK-931 was cohort based with an adaptive design using Bayesian logistic regression modeling (BLRM) with pharmacokinetic guidance. BLRM also guided MTD estimation from the second dose. Patients were enrolled in one of four dosing schedules (A, B, D, or E; Supplementary Fig. S1) to receive TAK-931. Two additional schedules were planned (C and F) but no patients were enrolled. Schedule A included an initial accelerated escalation phase. TAK-931 was administered once daily for 14 days in 21-day cycles starting at 30 mg, which doubled until a cycle 1 dose-limiting toxicity (DLT) was observed, when 2 patients experienced grade ≥2 treatment-related toxicity, or when maximum geometric mean plasma concentration (Cmax) for the cohort reached or exceeded 800 ng/mL [threshold for off-target adverse effects (hypotension) in animal toxicology studies]; then dose escalation transitioned to modified Fibonacci escalation steps. In schedule B (based on experience with schedule A), patients received TAK-931 once daily or twice daily for 7 days on, 7 days off in a 28-day cycle starting at 60 mg. In schedule D, patients received TAK-931 once daily starting at 20 mg in 21-day cycles; BLRM was not applied but further adjustments were dependent on observed safety, pharmacokinetics, and pharmacodynamics. In schedule E, patients received TAK-931 once daily for 2 days on, 5 days off starting at 100 mg in 21-day cycles. A safety expansion was permitted once MTD had been determined. Prophylactic growth factors were permitted in all schedules to manage severe and/or febrile neutropenia. TAK-931 treatment continued until unacceptable toxicity, disease progression, or patient withdrawal.
DLTs included: cycle 1 grade ≥3 hematologic and non-hematologic events or grade 2 non-hematologic events considered by the investigator to be TAK-931-related, grade 2 ejection fraction decrease, >2 weeks delay in initiating cycle 2 (1 week for schedules D and E), and >50% TAK-931 dose reduction in cycle 1 due to treatment-related adverse events (AEs; see Supplementary Materials and Methods for full DLT criteria). Toxicity was evaluated by NCI Common Terminology Criteria for Adverse Events (version 4.03). Tumor response was measured using the RECIST (version 1.1) ([16]). Serial blood samples for pharmacokinetic analysis were collected during cycle 1 on days 1 and 7 (schedule B), 1 and 8 (schedules A and D), or 1 and 9 (schedule E). Pharmacokinetic parameters were estimated from concentration–time profiles using noncompartmental methods with WinNonlin® Phoenix™ version 8.1 (Certara, Princeton, NJ). pMCM2 was detected semiquantitatively by IHC of histologic sections of formalin-fixed, paraffin-embedded skin and tumor biopsies using anti-pMCM2 (3378-1, Epitomics Inc.; ref. [15]). Quantitative image analysis determined pMCM2 levels as “histologic score nuclei (H-score).” Skin punch biopsies (2–4 mm) were obtained during screening or predose on cycle 1, day 1 and for patients in schedules A, B, and D, postdose on any drug dosing day after 3 consecutive dosing days in cycle 1. A postdose skin biopsy was obtained on day 9 in schedule E. Fresh tumor biopsy pairs were collected predose and postdose on any dosing day after the completion of 3 consecutive dosing days in cycle 1 from patients who received doses considered to have biological effect.
The safety population included patients who received ≥1 dose of TAK-931. The pharmacodynamic-evaluable population comprised patients from the safety population with a baseline and ≥1 additional postbaseline biopsy sample that was suitable for pMCM2 analysis. The pharmacokinetic-evaluable population included patients with sufficient dosing and TAK-931 concentration–time data to estimate pharmacokinetic parameters. […]

[1] = Schedule D (continuous once daily) n = 18
[2] = Schedule E (2 days on, 5 days off) n = 13
[3] = all schedules, N = 80, all grade 1/2

Cc1[nH]ncc1-c1cc2nc([C@@H]3CC4CCN3CC4)[nH]c(=O)c2s1 [TAK-931, simurosertib]
Rash popular, AE any grade [1]: 2 (11) n (%)
Stomatitis, AE any grade [1]: 0 (0) n (%)
Thrombocytopenia, AE any grade [1]: 0 (0) n (%)
Tumor pain, AE any grade [1]: 1 (6) n (%)
Vomiting, AE any grade [1]: 2 (11) n (%)
White blood cell count decreased, AE any grade [1]: 7 (39) n (%)
White blood cell count decreased, grade ≥3 AE [1]: 2 (11) n %
Abdominal pain, AE any grade [2]: 0 (0) n (%)
Alopecia, AE any grade [2]: 4 (31) n (%)
Anemia, AE any grade [2]: 6 (46) n (%)
Anemia, grade ≥3 AE [2]: 5 (38) n %
Arthralgia, AE any grade [2]: 1 (8) n (%)
Blood creatinine increased, AE any grade [2]: 0 (0) n (%)
Constipation, AE any grade [2]: 1 (8) n (%)
Cough, AE any grade [2]: 0 (0) n (%)
Decreased appetite, AE any grade [2]: 5 (38) n (%)
Decreased appetite, grade ≥3 AE [2]: 0 (0) n %
Diarrhea, AE any grade [2]: 3 (23) n (%)
Dry skin, AE any grade [2]: 3 (23) n (%)
Edema peripheral, AE any grade [2]: 3 (23) n (%)
Electrocardiogram QT prolonged, AE any grade [2]: 1 (8) n (%)
Fall, AE any grade [2]: 2 (15) n (%)
Fatigue, AE any grade [2]: 2 (15) n (%)
Febrile neutropenia, AE any grade [2]: 1 (8) n (%)
Febrile neutropenia, grade ≥3 AE [2]: 1 (8) n %
Gamma-glutamyltransferase increased, AE any grade [2]: 2 (15) n (%)
Gamma-glutamyltransferase increased, grade ≥3 AE [2]: 0 (0) n %
Hypoalbuminemia, AE any grade [2]: 0 (0) n (%)
Hypoalbuminemia, grade ≥3 AE [2]: 0 (0) n %
Hypophosphatemia, grade ≥3 AE [2]: 0 (0) n %
Hypotension, AE any grade [2]: 5 (38) n (%)
Leukopenia, AE any grade [2]: 1 (8) n (%)
Leukopenia, grade ≥3 AE [2]: 0 (0) n %
Lymphocyte count decreased, AE any grade [2]: 1 (8) n (%)
Lymphocyte count decreased, grade ≥3 AE [2]: 1 (8) n %
Lymphopenia, AE any grade [2]: 0 (0) n (%)
Malaise, AE any grade [2]: 2 (15) n (%)
Nasopharyngitis, AE any grade [2]: 0 (0) n (%)
Nausea, AE any grade [2]: 7 (54) n (%)
Neutropenia, AE any grade [2]: 8 (62) n (%)
Neutropenia, grade ≥3 AE [2]: 8 (62) n %
Orthostatic hypotension, AE any grade [2]: 3 (23) n (%)
Platelet count decreased, AE any grade [2]: 1 (8) n (%)
Pruritus, AE any grade [2]: 0 (0) n (%)
Pyrexia, AE any grade [2]: 2 (15) n (%)
Rash popular, AE any grade [2]: 0 (0) n (%)
Stomatitis, AE any grade [2]: 1 (8) n (%)
Thrombocytopenia, AE any grade [2]: 0 (0) n (%)
Tumor pain, AE any grade [2]: 3 (23) n (%)
Vomiting, AE any grade [2]: 7 (54) n (%)
White blood cell count decreased, AE any grade [2]: 7 (54) n (%)
White blood cell count decreased, grade ≥3 AE [2]: 4 (31) n %
Abdominal pain, AE any grade (Total, all schedules N = 80): 5 (6) n (%)
Alopecia, AE any grade (Total, all schedules N = 80): 26 (33) n (%)
Anemia, AE any grade (Total, all schedules N = 80): 19 (24) n (%)
Anemia, grade ≥3 AE (Total, all schedules N = 80): 10 (13) n %
Arthralgia, AE any grade (Total, all schedules N = 80): 6 (8) n (%)
Blood creatinine increased, AE any grade (Total, all schedules N = 80): 7 (9) n (%)
Constipation, AE any grade (Total, all schedules N = 80): 10 (13) n (%)
Cough, AE any grade (Total, all schedules N = 80): 3 (4) n (%)
Decreased appetite, AE any grade (Total, all schedules N = 80): 23 (29) n (%)
Decreased appetite, grade ≥3 AE (Total, all schedules N = 80): 3 (4) n %
Diarrhea, AE any grade (Total, all schedules N = 80): 15 (19) n (%)
Dry skin, AE any grade (Total, all schedules N = 80): 6 (8) n (%)
Edema peripheral, AE any grade (Total, all schedules N = 80): 10 (13) n (%)
Electrocardiogram QT prolonged, AE any grade (Total, all schedules N = 80): 4 (5) n (%)
Fall, AE any grade (Total, all schedules N = 80): 4 (5) n (%)
Fatigue, AE any grade (Total, all schedules N = 80): 12 (15) n (%)
Febrile neutropenia, AE any grade (Total, all schedules N = 80): 5 (6) n (%)
Febrile neutropenia, grade ≥3 AE (Total, all schedules N = 80): 5 (6) n %
Gamma-glutamyltransferase increased, AE any grade (Total, all schedules N = 80): 5 (6) n (%)
Gamma-glutamyltransferase increased, grade ≥3 AE (Total, all schedules N = 80): 2 (3) n %
Hypoalbuminemia, AE any grade (Total, all schedules N = 80): 6 (8) n (%)
Hypoalbuminemia, grade ≥3 AE (Total, all schedules N = 80): 2 (3) n %
Hypophosphatemia, grade ≥3 AE (Total, all schedules N = 80): 2 (3) n %
Hypotension, AE any grade (Total, all schedules N = 80): 11 (14) n (%)
Leukopenia, AE any grade (Total, all schedules N = 80): 19 (24) n (%)
Leukopenia, grade ≥3 AE (Total, all schedules N = 80): 11 (14) n %
Lymphocyte count decreased, AE any grade (Total, all schedules N = 80): 4 (5) n (%)
Lymphocyte count decreased, grade ≥3 AE (Total, all schedules N = 80): 2 (3) n %
Lymphopenia, AE any grade (Total, all schedules N = 80): 5 (6) n (%)
Malaise, AE any grade (Total, all schedules N = 80): 11 (14) n (%)
Nasopharyngitis, AE any grade (Total, all schedules N = 80): 6 (8) n (%)
Nausea, AE any grade (Total, all schedules N = 80): 48 (60) n (%)
Neutropenia, AE any grade (Total, all schedules N = 80): 45 (56) n (%)
Neutropenia, grade ≥3 AE (Total, all schedules N = 80): 37 (46) n %
Orthostatic hypotension, AE any grade (Total, all schedules N = 80): 4 (5) n (%)
Platelet count decreased, AE any grade (Total, all schedules N = 80): 6 (8) n (%)
Pruritus, AE any grade (Total, all schedules N = 80): 4 (5) n (%)
Pyrexia, AE any grade (Total, all schedules N = 80): 10 (13) n (%)
Rash popular, AE any grade (Total, all schedules N = 80): 5 (6) n (%)
Stomatitis, AE any grade (Total, all schedules N = 80): 7 (9) n (%)
Thrombocytopenia, AE any grade (Total, all schedules N = 80): 5 (6) n (%)
Tumor pain, AE any grade (Total, all schedules N = 80): 8 (10) n (%)
Vomiting, AE any grade (Total, all schedules N = 80): 29 (36) n (%)
White blood cell count decreased, AE any grade (Total, all schedules N = 80): 27 (34) n (%)
White blood cell count decreased, grade ≥3 AE (Total, all schedules N = 80): 12 (15) n %
Decrease in CLr (renal effects monitoring) (all schedules): no clinically relevant decrease
Severity of cardiovascular events (all schedules): grade 1/2
Alopecia, AE (all schedules, N = 80): 33%
Anemia, AE (all schedules, N = 80): 24%
Anemia, grade ≥3 AE (all schedules, N = 80): 13%
Decreased appetite, AE (all schedules, N = 80): 29%
Febrile neutropenia, grade ≥3 AE (all schedules, N = 80): 6%
Leukopenia, AE (all schedules, N = 80): 24%
Leukopenia, grade ≥3 AE (all schedules, N = 80): 14%
Nausea, AE (all schedules, N = 80): 60%
Neutropenia, AE (all schedules, N = 80): 56%
Neutropenia, grade ≥3 AE (all schedules, N = 80): 46%
Patients who discontinued treatment (AEs) (all schedules, N = 80): 4 patients
Patients with AEs resulting in dose delays (all schedules, N = 80): 40%
Patients with AEs resulting in dose holds (all schedules, N = 80): 45%
Patients with AEs resulting in dose reductions (all schedules, N = 80): 31%
Vomiting, AE (all schedules, N = 80): 36%
White blood cell count decreased, AE (all schedules, N = 80): 34%
White blood cell count decreased, grade ≥3 AE (all schedules, N = 80): 15%
Patients reporting grade ≥3 AEs (all schedules, N = 80, 50 patients): 63%
Patients experiencing AEs (all schedules, N = 80, 79 patients): 99%
Patients with AEs resulting in TAK-931 dose modification (all schedules, N = 80, Forty-nine patients): 61%
Patients who discontinued treatment (AEs) (all schedules, N = 80, Four patients): 5%
Patients with ≥1 serious AE (all schedules, N = 80, Twenty-three patients): 29%
Electrocardiogram QT prolonged, cardiovascular event [3]: 5%
Hypotension, cardiovascular event [3]: 14%
Orthostatic hypotension, cardiovascular event [3]: 5%
Decreased appetite, serious AE (all schedules, N = 80, n = 3): 4%
Malignant ascites, serious AE (all schedules, N = 80, n = 3): 4%
Febrile neutropenia, serious AE (all schedules, N = 80, n = 4): 5%
Patients who died during the study (all schedules, Two patients, due to disease progression, neither related to TAK-931): 3%
